Assay results: PubChem BioAssay (NCI)
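A five-concentration, 48-hour dose response in 96-well plates underlies each endpoint, interpolated linearly between surrounding concentrations. GI50 is the concentration that inhibits growth by half. At the TGI there is no net growth.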

System: MDA-MB-468 breast
Assay: inhibition of tumour cell growth, NCI panel, 48 h

SMILES | GI50 [nM] | TGI [nM]
CC(=Nc1ccccc1)C1=C(O)C(Cc2ccccc2)NC1=O (configuration not stated) | 17.3 | 50.2
C[C@@H](CO)[C@@H]1CCC=C2CC[C@]3(C)[C@H](CC[C@@H]4[C@@]5(C)CCCNC(C)(C)[C@@H]5CC[C@]43C)[C@H]21 | 1800 | 3400
COc1cc2c(cc1Nc1nc(Nc3ccsc3C(N)=O)c3cc[nH]c3n1)N(C(=O)CN(C)C)CCC2(C)C | 471 | 2600
CN1CCN(c2ccc3nc(-c4ccc5nc(-c6ccc(OCCC(C)(C)C)cc6)[nH]c5c4)[nH]c3c2)CC1 | 1910 | 4130
CC(=O)O[C@]1(C(C)=O)CC[C@H]2[C@@H]3C=C(C)C4=CC(=O)CC[C@]4(C)[C@H]3CC[C@@]21C | 77700 | > 100000
COc1ccc(-c2nc3ccccn3c2/C=C/C(=O)c2cc(OC)c(OC)c(OC)c2)cc1 | 11900 | 65500
Cc1cc(N(CCNc2ccnc3cc(Cl)ccc23)Cc2ccco2)nc(Cl)n1 | 1500 | 3070
O=C(NCc1ccc(Cn2c(=O)sn(-c3ccccc3)c2=O)cc1)OCc1ccc2c(Br)cc(Br)c(O)c2n1 | 500 | 2010
COc1ccc(Cn2cc3c(c2-c2ccc(OC)cc2)CCc2cnoc2-3)cc1 | 254 | 809
Nc1nc(-c2ccc(F)cc2)c(-c2ccc3ncccc3n2)s1 |  | > 25000
O=C(/C=C/c1cc([N+](=O)[O-])ccc1Cl)c1ccccc1 | 8460 | 22100
Oc1[nH]c2ccc(Cl)cc2c1/C=c1/ccc2c(c1)N=C(c1ccc(F)cc1)N=2 | 2020 | 3570
Cc1c(COc2cc(OCc3cccc(C#N)c3)c(CN3C[C@H](O)C[C@@H]3C(=O)O)cc2Cl)cccc1-c1ccc2c(c1)OCCO2 | 6720 | 20500
CN1c2ccccc2C(C)(C)C12C=Cc1cc(O)ccc1O2 (configuration not stated) | 3460 | 16700
CCCCCCCCCCCC1CCCC(C)N1 (configuration not stated) | 15500 | 31000
COc1ccc(OC)c(/C=C(/C)[N+](=O)[O-])c1 | 1270 | 2680
CCNC(=O)c1cc2c(-c3cc(C(C)(C)O)ccc3Oc3c(C)cc(F)cc3C)cn(C)c(=O)c2[nH]1 | 1170 | 7450
O=C1/C(=C/c2ccc(Cl)cc2)N=C(c2ccccc2)N1CCc1cccs1 | 13700 | 98200
CCCCCCCCCCCCCC[n+]1ccc2c(C)c3c(c(C)c2c1)c1cc(O)ccc1n3CC | 176 | 654

SMILES | GI50 [nM] | TGI [nM]
O=[N+]([O-])c1c(Br)sc(Br)c1[N+](=O)[O-] | 1270 | 2910
CC1(C)[C@@H](O[C@@H]2OC[C@@H](O[C@@H]3O[C@H](CO)[C@@H](O)[C@H](O)[C@H]3O[C@@H]3OC[C@@H](O)[C@H](O)[C@H]3O)[C@H](O)[C@H]2O[C@@H]2O[C@H](CO)[C@@H](O)[C@H](O)[C@H]2O)CC[C@]2(C)[C@H]3CC[C@]45OC[C@@]6(CC[C@](C)(C=O)C[C@H]64)[C@H](O)C[C@@]5(C)[C@]3(C)CC[C@@H]12 | 941 | 1960
Fc1ccc(Nc2nc3nonc3nc2Nc2ccc(F)cc2)cc1 | 281 | 1460
N#CSCC1CC(O)(c2ccccc2)CC(c2ccc(F)cc2)O1 (configuration not stated) | 2250 | 7550
NC(=O)c1ccc2nc(-c3ccc(Oc4ccc(Cl)cc4)cc3)[nH]c2c1 | 10500 | 29300
NC(=O)c1cc(-c2ccc(F)cc2)cc(-c2ccncc2)c1N | 8170 | > 25000
Cc1cc(Cl)ccc1NC(=O)c1cc2ccccc2cc1O | 1780 | 7420
Cc1cccc2c(=O)c3c(sc12)c(NCCNCCO)nc1ccccc13 | 1090 | 2500
CCC1CCc2nc3sc(C(=O)Nc4cccc(F)c4)c(N)c3cc2C1 (configuration not stated) | 471 | > 100000
Nc1nc(-c2ccccc2)nc(N)c1N=O | 1750 | 5700
CN(C)c1ccc(Nc2cc(-c3cccc(OC(F)(F)F)c3)nc3ccc(N4CCCC4)cc23)cc1 | 2050 | 4380
COc1ccc(Nc2c3ccccc3nc3ccccc23)cc1 | 547 | 4530
CN(CC(=O)N(Cc1ccc(C2CCCCC2)cc1)c1ccc(C(=O)O)c(O)c1)S(=O)(=O)c1c(F)c(F)c(F)c(F)c1F | 1760 | 3760
O=C(Nc1ccc2ncnc(Nc3ccc(Oc4cccc(F)c4)c(Cl)c3)c2c1)c1ccc(CNCCO)cc1 | 561 | 2020
Cc1ccc2ccc3ccc(C)nc3c2n1.Cc1ccc2ccc3ccc(C)nc3c2n1.Oc1c(Cl)cc(Cl)c2ccc(CN3CCCCC3)nc12.[Ru] | 248 | 875
CC[C@@H](C(=O)[C@@H](C)[C@@H](O)[C@H](C)[C@@H]1O[C@@H]([C@@H](CC)C(=O)N(CC)CC)CC[C@@H]1C)C1O[C@]2(C=CC(=O)[C@]3(CC[C@@](C)([C@H]4CC[C@](O)(CC)[C@H](C)O4)O3)O2)[C@H](C)C[C@@H]1C (some centres not stated) | 943 | 3190
COc1cc(/C=C/C(=O)c2ccc(NC(=O)CN3CCN(c4cc5c(cc4F)c(=O)c(C(=O)O)cn5C4CC4)CC3)cc2)cc(OC)c1OC | 358 | 
COc1cc(Nc2ccnc(NCCCNc3ccnc4cc(Cl)ccc34)n2)cc(OC)c1 | 1490 | 3180
